Results taken from patent US9250240B2, “Immunoreactive Ehrlichia p120/p140 epitopes and uses thereof” (Research Development Foundation, priority 2009, dated 2016).
No end group written: not given here.

Legend:
[1] = test system: E. chaffeensis antibodies in HME patient sera; test: ELISA evaluation of E. chaffeensis immunodeterminants for serologic diagnosis of HME; type: binding, human
Procedure: ELISA. For epitope mapping, an ELISA was performed as previously described (Luo et al., 2009). For serologic diagnosis evaluation, an Immobilizer amino plate (Nunc, Roskilde, Denmark) was used to increase the signal-to-noise ratio. Immobilizer amino plates were coated with synthetic peptides or recombinant proteins (0.5 μg/well; 50 μl) suspended in 100 mM sodium carbonate buffer (pH 9.6) and incubated with gentle agitation at room temperature for 1 to 2 h or overnight at 4° C. The wells were washed four times with 300 μl phosphatebuffered saline containing 0.05% (vol/vol) Tween 20 (PBST; pH 7.2) by a plate washer (SkanWasher 400; Molecular Devices, Sunnyvale, Calif.). Dog or human sera diluted (1:100 or 1:200, respectively) in PBST were added to each well (50 μl) and incubated at room temperature for 1 h. The plates were washed again, and 50 μl alkaline phosphatase-labeled goat anti-dog or -human IgG(H+L) secondary antibody (Kirkegaard & Perry Laboratories, Gaithersburg, Md.) diluted (1:5,000) in PBST was added and incubated at room temperature for 1 h. After the addition of substrate (BluePhos; Kirkegaard & Perry Laboratories), plates were incubated in the dark for 30 min, color development was determined on a microplate reader (VersaMax; Molecular Devices, Sunnyvale, Calif.) at A650, and data were analyzed by SoftMax Pro version 4.0 (Molecular Devices). Optical density (OD) readings represent the mean OD value for three wells (±standard deviations) after subtracting the OD value of the negative control wells. All sera negative for E. chaffeensis by IFA had readings of <0.05 OD unit; therefore, a positive sample threshold was set at >0.1 OD unit. In addition, a reading of 0.1 to 0.5 OD unit was considered a weak positive, and a reading of >0.5 OD unit was considered a strong positive. IFA. The anti-E. chaffeensis antibody status in HME patient sera was determined as described previously (McBride et al., 2003). […] The statistical differences between experimental groups were assessed with the two-tailed Student t test, and significance was indicated by a P value of <0.05. […]

[2] = test system: antibodies in anti-E. canis dog sera; test: ELISA of overlapping synthetic peptides spanning the E. canis p140 repeat unit; type: binding; details: four anti-E. canis sera from naturally infected dogs (nos. 2160, 6, 10, 18)
Procedure: ELISA. Enzyme-linked immunosorbent assay (ELISA) plates (MaxiSorp; Nunc, Roskilde, Denmark) were coated (0.5 μg/well; 50 μl) with recombinant proteins or synthetic peptides suspended in phosphate-buffered saline (pH 7.4). Proteins and peptides were absorbed for 1 h at room temperature with gentle agitation, and subsequently washed thrice with 200 μl Tris-buffered saline containing 0.2% Tween 20 (TBST). Plates were blocked with 100 μl 10% equine serum (Sigma) in TBST for 1 h at room temperature with agitation, and washed. Convalescent dog or human sera diluted (1:100 or 1:200, respectively) in 10% equine serum-TBST were added to each well (50 μl) and incubated at room temperature for 1 h with gentle agitation. […] The plates were incubated in the dark for 30 min with agitation, and color development was determined on a microplate reader (VersaMax; Molecular Devices, Sunnyvale, Calif.) at A650 and data analyzed by SoftmaxPro v4.0 (Molecular Devices). Optical density (OD) readings represent the mean OD for three wells (±standard deviations) after subtracting the OD value of the buffer-only wells. A reading >0.2 OD unit above the negative control absorbance was considered positive for all samples. In addition, a reading 0.2-0.5 OD unit above the control absorbance was considered a weak positive, and a reading >0.5 OD unit above the control absorbance was considered a strong positive. […]

[3] = 31 HME patient sera (IFA titers 64 to 8192), positive = 0.1 OD unit above negative control

Row | Substance | % of patients with detectable antibodies [1, 3] [%] | No. of patients with detectable antibodies [1, 3] | specificity for diagnosing HME ([1]; as worded in the summary) [%] | Immunoreactivity by ELISA [2]
1 | TRP32 peptides: equal (w:w) mixture of TRP32-R3 and TRP32-R4 peptides (chain 1 SDLHGSFSVELFDPFKEAVQLGNDLQQSSD; chain 2 SDSHEPSHLELPSLSEEVIQLESDLQQSSN; not fully specified) | 87.1 | 27 | 87.1 | 
2 | p140R-3: 11-mer overlapping synthetic peptide of the E. canis p140 repeat unit (SKEESTPEVKA) |  |  |  | virtually nonreactive
